Data from patent US20250161216A1, “CATIONIC LIPID ANALOGUES, COMPOSITIONS AND USES THEREOF” (GUANGZHOU LIDE BIOMEDICINE TECHNOLOGY CO., LTD., priority 2022, published 2025).

What was measured:
C57BL/6 mice [1] = assay: In vivo expression level of Luciferase-mRNA delivered by intramuscular injection (bioluminescence imaging); conditions: mRNA-loaded nanoparticles, compounds of Example 2; intramuscular (leg muscle), 5 μg Luciferase-mRNA, 6 hours
Method: (§1) Luciferase-mRNA was used as an mRNA model; and the cationic lipid analogues of Examples 1-5 were used to prepare drug-loaded nanoparticles according to the method of Example 6.
(§2) 100 μL of nanoparticles containing 5 μg Luciferase-mRNA or the drug-loaded nanoparticles prepared above were injected into the leg muscles of 6-8 week-old C57BL/6 mice, and 200 μL of 1×PBS solution containing 3 mg D-Luciferin potassium salt was intraperitoneally injected into the mice 6 hours later. After waiting for 10 minutes, an in vivo expression level of the mRNA was evaluated by bioluminescence imaging.

C57BL/6 mice [2] = assay: In vivo expression level of Luciferase-mRNA delivered by intravenous injection (bioluminescence imaging); conditions: mRNA-loaded nanoparticles, intravenous (tail vein), 5 μg Luciferase-mRNA, 6 hours
Method: as §1
as §2, with “200” for “100”, “tail veins” for “the leg muscles”

SMILES	Local fluorescence intensity (C57BL/6 mice [1])	Fluorescence intensity of spleen (C57BL/6 mice [2]; compounds of Example 2)	further results
CCCCC/C=C\C/C=C\CCCCCCCC(=O)N(CCCCCO)C(C(=O)NCCN(C)CCNC(=O)C(C(C)C)N(CCCCCO)C(=O)CCCCCCC/C=C\C/C=C\CCCCC)C(C)C (stereo not shown) [A1I4R27C18-2]	1.67E+04	–	–
CCCC/C=C\C/C=C\CCCCCCCC(=O)N(CCCO)C(C(=O)NCCN(C)CCNC(=O)C(C(C)C)N(CCCO)C(=O)CCCCCCC/C=C\C/C=C\CCCCC)C(C)C (stereo not shown) [A1I4R42C18-2]	7.04E+04	–	–
CCCCC/C=C\C/C=C\CCCCCCCC(=O)N(CCCOCC)C(C(=O)NCCN(C)CCNC(=O)C(C(C)C)N(CCCOCC)C(=O)CCCCCCC/C=C\C/C=C\CCCCC)C(C)C (stereo not shown) [A1I4R31C18-2]	5.21E+04	–	–
CCCCC/C=C\C/C=C\CCCCCCCC(=O)N(C(C(=O)NCCN(C)CCNC(=O)C(C(C)C)N(C(=O)CCCCCCC/C=C\C/C=C\CCCCC)C(CO)(CO)CO)C(C)C)C(O)(CO)CO (stereo not shown) [A1I4R30C18-2]	2.05E+04	–	–
CCCC/C=C\C/C=C\CCCCCCCC(=O)N(C(C(=O)NCCN(C)CCNC(=O)C(C(C)C)N(C(=O)CCCCCCC/C=C\C/C=C\CCCCC)C(C)(CO)CO)C(C)C)C(C)(CO)CO (stereo not shown) [A1I4R29C18-2]	2.99E+04	–	–
CCCCC/C=C\C/C=C\CCCCCCCC(=O)N(CCCCCCO)C(C(=O)NCCN(C)CCNC(=O)C(C(C)C)N(CCCCCCO)C(=O)CCCCCCC/C=C\C/C=C\CCCCC)C(C)C (stereo not shown) [A1I4R28C18-2]	1.72E+06	–	–
CCCCCCCCSSCCC(=O)N(CCO)C(C(=O)NCCN(C)CCNC(=O)C(C(C)C)N(CCO)C(=O)CCSSCCCCCCCC)C(C)C (stereo not shown) [A1I4R22S13]	–	5.90E+03	–
CCCCC/C=C\C/C=C\CCCCCCCC(=O)N(CCCN(C)C)C(C(=O)NCCN(C)CCNC(=O)C(C(CC)CCCC)N(CCCN(C)C)C(=O)CCCCCCC/C=C\C/C=C\CCCCC)C(CC)CCCC (stereo not shown) [A4I4R2C18-2]	–	1.86E+04	–
CCCCCCCCCCCCC#CC#CCCCCCCCCC(=O)N(CCCN(CC)CC)C(C(=O)NCCCCCCCCCCCCCCCCCC)C1CCCCC1 (stereo not shown) [A23I18R3C23]	–	–	Fluorescence intensity of liver (C57BL/6 mice [2]; compounds of Example 1): 7.89E+05
CCCCC/C=C\C/C=C\CCCCCCCC(=O)N(CCC)C(C(=O)NCCN(C)CCNC(=O)C(C1CC1)N(CCC)C(=O)CCCCCCC/C=C\C/C=C\CCCCC)C1CC1 (stereo not shown) [A21I4R21C18-2]	–	1.39E+03	–
CCCCC/C=C\C/C=C\CCCCCCCC(=O)N(CCCOC(C)C)C(C(=O)NCCN(C)CCNC(=O)C(C(C)C)N(CCCOC(C)C)C(=O)CCCCCCC/C=C\C/C=C\CCCCC)C(C)C (stereo not shown) [A1I4R32C18-2]	2.57E+04	–	–
CCCCCCCCCCCCSSCCC(=O)N(CCO)C(C(=O)NCCN(C)CCNC(=O)C(C(C)C)N(CCO)C(=O)CCSSCCCCCCCCCCCC)C(C)C (stereo not shown) [A1I4R22S17]	–	1.80E+04	–
CCCCCCCC/C=C\CCCCCCCC(=O)N(CCC)C(C(=O)NCCN(C)CCNC(=O)C(C1CCCCC1)N(CCC)C(=O)CCCCCCC/C=C\CCCCCCCC)C1CCCCC1 (stereo not shown) [A23I4R21C18-1]	–	9.63E+04	–
CC/C=C\C/C=C\C/C=C\CCCCCCCC(=O)N(CCCN(C)C)C(C(=O)NCCCCCCCCCCCCCCCCCC)C(CC)CCCC (stereo not shown) [A4I18R2C18-3]	–	–	Bioluminescence intensity (C57BL/6 mice [2]; compounds of Example 1): 1.36E+07
CC/C=C\C/C=C\C/C=C\CCCCCCCC(=O)N(CCCN(C)C)C(C(=O)NCCCCCCCCCCCCCCCCCC)C(C)C (stereo not shown) [A1I18R2C18-3]	–	–	Fluorescence intensity of liver (C57BL/6 mice [2]; compounds of Example 1): 6.77E+04
CCCCC/C=C\C/C=C\CCCCCCCC(=O)N(CCCN(C)c1ccccc1)C(CCCCC)C(=O)NCCCCCCCCCCCCCCCCCC (stereo not shown) [A4I18R7C18-2]	–	–	Fluorescence intensity of liver (C57BL/6 mice [2]; compounds of Example 1): 5.22E+03
CCCCCCCCCCCCCCCC(=O)N(CCO)C(C(=O)NCCN(CCNC(=O)C(C(C)C)N(CCO)C(=O)CCCCCCCCCCCCCCC)CCNC(=O)C(C(C)C)N(CCO)C(=O)CCCCCCCCCCCCCCC)C(C)C (stereo not shown) [A1I5R22C16]	–	–	Fluorescence intensity of spleen (C57BL/6 mice [2]; compounds of Example 3): 4.10E+05
CCCCC/C=C\C/C=C\CCCCCCCC(=O)N(CCCN(C)C)C(C(=O)NCCN(C)CCNC(=O)C(C1CC1)N(CCCN(C)C)C(=O)CCCCCCC/C=C\C/C=C\CCCCC)C1CC1 (stereo not shown) [A21I4R2C18-2]	–	1.83E+03	–
CC/C=C\C/C=C\C/C=C\CCCCCCCC(=O)N(CCN(C)C)C(C(=O)NCCCCCCCCCCCCCCCCCC)C(C)C (stereo not shown) [A1I18R1C18-3]	–	–	Fluorescence intensity of liver (C57BL/6 mice [2]; compounds of Example 1): 1.88E+06
CCCCCCCC/C=C\CCCCCCCC(=O)N(CCOC)C(C(=O)NCCN(C)CCNC(=O)C(C1CC1)N(CCOC)C(=O)CCCCCCC/C=C\CCCCCCCC)C1CC1 (stereo not shown) [A21I4R23C18-1]	–	2.28E+04	–
CCCCC/C=C\C/C=C\CCCCCCCC(=O)N(CCC)C(C(=O)NCCN(C)CCNC(=O)C(C(CC)CCCC)N(CCC)C(=O)CCCCCCC/C=C\C/C=C\CCCCC)C(CC)CCCC (stereo not shown) [A4I4R21C18-2]	–	1.91E+04	–
CCCCC/C=C\C/C=C\CCCCCCCC(=O)N(CCC1CCCN1C)C(CCCCC)C(=O)NCCCCCCCCCCCCCCCCCC (stereo not shown) [A4I18R11C18-2]	–	–	Fluorescence intensity of liver (C57BL/6 mice [2]; compounds of Example 1): 1.02E+06
